How the values were obtained:
[1] = Rat Liver Microsome Stability Assay; assay type: in vitro ADME; details: rat liver microsomes, 1 uM compound
[2] = molecular target: OGA (S400 O-GLCNAC), HEK-293T cells transfected with Tau-V5 (Homo sapiens (Human), UniProt O60502); assay: Cellular OGA-Tau MSD Assay; assay type: cell-based; details: HEK-293T cells, Tau-S400-GlcNAc MSD readout
Outline: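 HEK-293T cells transfected with OGA and Tau-V5 plasmids were treated overnight at 37° C with a 10-point, 3-fold titration from 1 uM. Lysates went onto V5-antibody MSD plates to capture Tau, probed with a Tau O-GlcNAc antibody and read by electrochemiluminescence; IC50 from a 4-parameter fit.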

[3] = molecular target: Recombinant full length human OGA enzyme (Homo sapiens (Human), UniProt O60502); assay: OGA Enzyme Inhibition Biochemical Assay; details: 1 nM OGA, 100 μM 4-MUGlcNAc, pH 6.4
Outline: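 Full-length recombinant human OGA with fluorogenic 4-MUGlcNAc in McIlvaine buffer pH 6.4, 0.01% BSA; 90 min at room temperature, glycine pH 10 quench, fluorescence Ex 355/Em 460 nm. 10-point, 4-fold dilution from 20 μM; 4-parameter variable-slope fit.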

[4] = tested on: P-gp (MDR1); assay: MDR1-MDCK Efflux Ratio Assay; assay type: in vitro ADME; details: dog, MDCK-MDR1, pH 7.4, MDR1-MDCK cells, 2 hr, pH 7.4; read-out: MDR1-MDCK Efflux Ratio (B-A/A-B)
Experimental: MDR1-MDCK cell monolayers were grown to confluence on microporous polyester membranes in 96-well Corning insert plates. The permeability assay buffer was Hanks' Balanced Salt Solution containing 10 mM HEPES at pH of 7.4. Loperamide (1 μM) was used as a positive control P-gp substrate. Propranolol and Bestatin (1 μM) were used as high and low permeability comparators, respectively. Test compounds or positive control P-gp substrate/permeability comprators were added to respective apical and basolateral chambers for bidirectional assessment of permeability. Receiver buffer (transport buffer supplemented with 1% bovine serum albumin) was added to respective receiver chambers. MDR1-MDCK cells were incubated with test compounds at 37° C. with 5% CO2 for 2 hr. Samples were collected from the donor chamber at both 0 and 120 minutes, and from the receiver chamber at 120 minutes. Test and control compound concentrations were determined using LC-MS/MS analysis. Each determination was performed in triplicate. The apparent permeability (Papp), efflux ratio and mass balance (percent recovery) were calculated as follows: [formula] where: dCr/dt is the cumulative concentration in the receiver compartment versus time in μM s^−1 Vr is the volume of the receiver compartment in cm^3 Vd is the volume of the donor compartment in cm^3 A is the area of the insert (0.143 cm^2 for 96-well insert) CE is the estimated experimental concentration (Time=0) of the dosing solution Cr^final is the concentration of the receiver at the end of the incubation period Cd^final is the concentration of the donor at the end of the incubation period.

Sequence of OGA (S400 O-GLCNAC), HEK-293T cells transfected with Tau-V5 (O60502 whole entry): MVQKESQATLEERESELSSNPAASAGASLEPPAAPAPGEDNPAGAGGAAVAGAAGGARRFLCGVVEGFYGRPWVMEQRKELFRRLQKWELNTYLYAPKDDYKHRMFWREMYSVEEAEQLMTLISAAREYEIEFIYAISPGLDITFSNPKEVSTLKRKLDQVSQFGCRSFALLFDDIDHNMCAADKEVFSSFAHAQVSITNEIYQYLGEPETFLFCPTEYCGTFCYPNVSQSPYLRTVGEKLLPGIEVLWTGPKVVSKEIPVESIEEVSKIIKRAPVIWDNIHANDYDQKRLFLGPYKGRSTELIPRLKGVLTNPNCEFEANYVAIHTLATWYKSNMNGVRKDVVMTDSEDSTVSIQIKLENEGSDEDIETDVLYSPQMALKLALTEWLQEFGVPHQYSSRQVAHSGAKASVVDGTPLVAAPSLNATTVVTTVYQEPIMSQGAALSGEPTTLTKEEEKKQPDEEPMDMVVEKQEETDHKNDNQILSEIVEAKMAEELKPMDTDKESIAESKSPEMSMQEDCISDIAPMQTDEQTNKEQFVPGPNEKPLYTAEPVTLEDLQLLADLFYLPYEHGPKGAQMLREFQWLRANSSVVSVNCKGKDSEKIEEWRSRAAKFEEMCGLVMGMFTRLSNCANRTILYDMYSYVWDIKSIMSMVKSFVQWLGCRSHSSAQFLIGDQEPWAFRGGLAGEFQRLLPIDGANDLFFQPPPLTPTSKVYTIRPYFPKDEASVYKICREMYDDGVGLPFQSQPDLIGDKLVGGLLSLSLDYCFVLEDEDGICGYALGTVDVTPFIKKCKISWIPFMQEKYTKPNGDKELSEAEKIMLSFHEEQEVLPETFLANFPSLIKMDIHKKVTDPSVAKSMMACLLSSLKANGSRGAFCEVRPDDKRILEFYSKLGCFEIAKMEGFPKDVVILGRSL
Sequence of Recombinant full length human OGA enzyme (O60502 whole entry): as above

| SMILES | RLM % Qh (%) [1] [%] | IC50 [2] [µM] | IC50 [3] [µM] | efflux ratio at 2 h [4] |
| --- | --- | --- | --- | --- |
| COc1cc(O[C@@H]2C[C@@H](C)N(Cc3cnc(NC(C)=O)s3)C2)ncn1 [Example 1-38, N-(5-(((2R,4R)-4-((6-methoxypyrimidin-4-yl)oxy)-2-methylpyrrolidin-1-yl)methyl)thiazol-2-yl)acetamide] | 32 | > 1 | 0.25 | 3.9 |
| COc1cc(O[C@H]2C[C@H](C)N(Cc3cnc(NC(C)=O)s3)C2)ncn1 [Example 1-39, N-(5-(((2S,4S)-4-((6-methoxypyrimidin-4-yl)oxy)-2-methylpyrrolidin-1-yl)methyl)thiazol-2-yl)acetamide] | 57 | 0.03 | 0.055 | 4.5 |
| COc1cc(O[C@H]2C[C@@H](C)N(Cc3cnc(NC(C)=O)s3)C2)ncn1 [Example 1-40, N-(5-(((2R,4S)-4-((6-methoxypyrimidin-4-yl)oxy)-2-methylpyrrolidin-1-yl)methyl)thiazol-2-yl)acetamide] | 20 | > 1 | 0.72 | 5.3 |
| COc1cc(O[C@H]2CCCN(Cc3cnc(NC(C)=O)s3)C2)ncn1 [Example 1-41, (S)—N-(5-((3-((6-methoxypyrimidin-4-yl)oxy)piperidin-1-yl)methyl)thiazol-2-yl)acetamide] | 80 | 0.029 | 0.024 | 4.3 |
| COc1cc(O[C@@H]2CCCN(Cc3cnc(NC(C)=O)s3)C2)ncn1 [Example 1-42, (R)—N-(5-((3-((6-methoxypyrimidin-4-yl)oxy)piperidin-1-yl)methyl)thiazol-2-yl)acetamide] | 61 | 0.081 | 0.039 | 3.9 |

Next, values leading:

| RLM % Qh (%) [1] [%] | IC50 [2] [µM] | IC50 [3] [µM] | efflux ratio at 2 h [4] | SMILES |
| --- | --- | --- | --- | --- |
| 33 | 0.047 | 0.016 | 1.8 | COc1cc(O[C@@H]2CCN(Cc3sc(NC(C)=O)nc3F)C2)ncn1 [Example 1-28, (R)—N-(4-fluoro-5-((3-((6-methoxypyrimidin-4-yl)oxy)pyrrolidin-1-yl)methyl)thiazol-2-yl)acetamide] |
| 83 | 0.032 | 0.014 | 3.1 | COc1cc(O[C@H]2CCCN(Cc3sc(NC(C)=O)nc3F)C2)ncn1 [Example 1-32, (S)—N-(4-fluoro-5-((3-((6-methoxypyrimidin-4-yl)oxy)piperidin-1-yl)methyl)thiazol-2-yl)acetamide] |
| 65 | 0.051 | 0.017 | 2.9 | COc1cc(O[C@@H]2CCCN(Cc3sc(NC(C)=O)nc3F)C2)ncn1 [Example 1-33, (R)—N-(4-fluoro-5-((3-((6-methoxypyrimidin-4-yl)oxy)piperidin-1-yl)methyl)thiazol-2-yl)acetamide] |
| 90 | 0.002 | < 0.001 | 4.1 | COc1cc(O[C@H]2CC[C@H](C)N(Cc3sc(NC(C)=O)nc3F)C2)ncn1 [Example 1-34, N-(4-fluoro-5-(((2S,5S)-5-((6-methoxypyrimidin-4-yl)oxy)-2-methylpiperidin-1-yl)methyl)thiazol-2-yl)acetamide] |
| 92 | 0.002 | < 0.001 | 4.3 | COc1cc(O[C@@H]2CC[C@H](C)N(Cc3sc(NC(C)=O)nc3F)C2)ncn1 [Example 1-35, N-(4-fluoro-5-(((2S,5R)-5-((6-methoxypyrimidin-4-yl)oxy)-2-methylpiperidin-1-yl)methyl)thiazol-2-yl)acetamide] |
| 81 | 0.001 | < 0.001 | 6.9 | COc1cc(O[C@H]2CC[C@H](C)N(Cc3cnc(NC(C)=O)s3)C2)ncn1 [Example 1-43, N-(5-(((2S,5S)-5-((6-methoxypyrimidin-4-yl)oxy)-2-methylpiperidin-1-yl)methyl)thiazol-2-yl)acetamide] |

— patent US20240308995A1, “O-GLYCOPROTEIN-2-ACETAMIDO-2-DEOXY-3-D-GLUCOPYRANOSIDASE INHIBITORS” (BIOGEN MA INC., priority 2018, published 2024)
